ChEMBL document CHEMBL3352513, “Discovery of 3-Arylcoumarin-tetracyclic Tacrine Hybrids as Multifunctional Agents against Parkinson's Disease” (2014)
Activity calls are given as the source filed them. The calls are words filed in the database; no cut-off is given here.

Columns and labels:
[1] = biological target: T1, Acetylcholinesterase 1 (Caenorhabditis elegans) (UniProt P38433); assay: Inhibition of AChE in Caenorhabditis elegans assessed as increase in acetylcholine after 48 hrs by Amplex red assay
T1 sequence (whole entry): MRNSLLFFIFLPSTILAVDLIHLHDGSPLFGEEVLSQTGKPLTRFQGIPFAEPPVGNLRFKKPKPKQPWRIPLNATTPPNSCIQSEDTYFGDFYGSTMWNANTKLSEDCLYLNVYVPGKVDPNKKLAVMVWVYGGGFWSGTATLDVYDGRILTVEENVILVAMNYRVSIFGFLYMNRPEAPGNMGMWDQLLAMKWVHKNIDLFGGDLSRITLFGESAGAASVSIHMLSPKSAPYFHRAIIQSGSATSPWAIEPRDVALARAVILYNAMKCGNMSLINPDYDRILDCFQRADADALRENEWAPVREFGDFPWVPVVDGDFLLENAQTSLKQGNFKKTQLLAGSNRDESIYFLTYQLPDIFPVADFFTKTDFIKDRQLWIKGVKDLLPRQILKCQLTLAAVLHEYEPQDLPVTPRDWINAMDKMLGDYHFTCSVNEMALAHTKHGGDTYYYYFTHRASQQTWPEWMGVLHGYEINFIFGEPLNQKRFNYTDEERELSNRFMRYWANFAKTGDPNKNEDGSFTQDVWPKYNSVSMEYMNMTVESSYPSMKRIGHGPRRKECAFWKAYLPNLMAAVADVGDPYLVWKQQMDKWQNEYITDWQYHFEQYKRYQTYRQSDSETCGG

[2] = biological target: Alpha-synuclein (Homo sapiens) (UniProt P37840); assay: Inhibition of YFP-tagged human alpha-synuclein aggregation expressed in transgenic Caenorhabditis elegans model NL5901 incubated for 48 hrs by fluorescent microscopy relative to untreated control
Caenorhabditis elegans [3] = assay: Antioxidant activity in Caenorhabditis elegans N2 assessed as reduction in ROS generation H2DCFDA dye based fluorescent assay; type: functional
HEK293 [4] = assay: Cytotoxicity against HEK293 cells assessed as inhibition of cell proliferation at 2 mM after 48 hrs by MTT assay; type: functional; conditions: Homo sapiens, HEK293, 48 h; read-out: GI
Caenorhabditis elegans [5] = assay: […] content in Caenorhabditis elegans NL5901 assessed as reduction in response time after 48 hrs nonanol repulsion assay; type: functional
HepG2 [6] = assay: Cytotoxicity against human HepG2 cells assessed as inhibition of cell proliferation at 500 uM after 48 hrs by MTT assay; type: functional; conditions: HepG2, 48 h, read-out: GI
HEK293 [7] = assay: Cytotoxicity against HEK293 cells assessed as inhibition of cell proliferation at 500 uM after 48 hrs by MTT assay; type: functional; conditions: Homo sapiens, HEK293, 48 h; read-out: GI
Caenorhabditis elegans [8] = assay: Increase in DAF16 nuclear localization in GFP expressing Caenorhabditis elegans TJ356 after 48 hrs by fluorescence microscopy; type: functional, organism-based
Caenorhabditis elegans [9] = assay: […] content in Caenorhabditis elegans N2 assessed as reduction in response time after 48 hrs nonanol repulsion assay; type: functional
HepG2 [10] = assay: Cytotoxicity against human HepG2 cells assessed as inhibition of cell proliferation at 2 mM after 48 hrs by MTT assay; type: functional; conditions: HepG2, 48 h, read-out: GI

SMILES	fold change (FC) [1]	inhibition [2]	fold change (FC) (Caenorhabditis elegans [3])	fold change (FC) [2]	inhibition of growth at 2000 µM (HEK293 [4]) [%]	inhibition of growth at 500 µM (HepG2 [6]) [%]	inhibition of growth at 500 µM (HEK293 [7]) [%]	inhibition of growth at 2000 µM (HepG2 [10]) [%]	further results
COc1ccc(-c2cc3cc(C4C5=C(CC(C)(C)CC5=O)Oc5nc6c(c(N)c54)CCC6)cc(C(C)C)c3oc2=O)cc1 (racemic)	1.5	inactive	2.16						
COc1cc(-c2cc3cc(C4C5=C(CCCC5=O)Oc5nc6c(c(N)c54)CCCC6)cc(C(C)C)c3oc2=O)cc(OC)c1OC (racemic)	1.2		1.72	2.6	73.8	26.1	54	27.8	fold change (FC) (Caenorhabditis elegans [5]): 1.75; Activity (Caenorhabditis elegans [8]): Active; fold change (FC) (Caenorhabditis elegans [9]): 2.6
CCC(C)c1cc(C2C3=C(CCCC3=O)Oc3nc4c(c(N)c32)CCCC4)cc2cc(-c3cc(OC)c(OC)c(OC)c3)c(=O)oc12 (racemic)	1.15		1.84	2.1	56.9	8.66	6.5	16.5	fold change (FC) (Caenorhabditis elegans [5]): 1.9; Activity (Caenorhabditis elegans [8]): inactive; fold change (FC) (Caenorhabditis elegans [9]): 1.8
CCC(C)c1cc(C2C3=C(CC(C)(C)CC3=O)Oc3nc4c(c(N)c32)CCCC4)cc2cc(-c3cc(OC)c(OC)c(OC)c3)c(=O)oc12 (racemic)				1.35					inhibition [1]: inactive
CCC(C)c1cc(C2C3=C(CC(C)(C)CC3=O)Oc3nc4c(c(N)c32)CCCC4)cc2cc(-c3ccc(OC)cc3)c(=O)oc12 (racemic)	1.51			2					
CCC(C)c1cc(C2C3=C(CCCC3=O)Oc3nc4c(c(N)c32)CCC4)cc2cc(-c3cc(OC)c(OC)c(OC)c3)c(=O)oc12 (racemic)	1.14			1.76					
COc1ccc(-c2cc3cc(C4C5=C(CC(C)(C)CC5=O)Oc5nc6c(c(N)c54)CCC6)cc(C(C)C)c3oc2=O)cc1OC (racemic)	1.19	inactive							
COc1ccc(-c2cc3cc(C4C5=C(CC(C)(C)CC5=O)Oc5nc6c(c(N)c54)CCCC6)cc(C(C)C)c3oc2=O)cc1 (racemic)	1.88								
COc1ccc(-c2cc3cc(C4C5=C(CC(C)(C)CC5=O)Oc5nc6c(c(N)c54)CCCC6)cc(C(C)C)c3oc2=O)cc1OC (racemic)	1.16	inactive							
Nc1c2c(nc3ccccc13)CCCC2 [TACRINE]					83	83.4	72.3	86.9	
